Several values for one entry are separate records, joined by “and”; a condition that tells them apart may be missing. Equal values may be shown once.
Experiments:
LXRα full length (FL) = biological target: T1, LXRα full length (FL) (Homo sapiens, UniProt Q13133); experiment: LXR Gal4 reporter transient transfection assay, mammalian two-hybrid, FL-M2H Gal4α; format: cell-based; conditions: HEK293 cells; inverse agonist unless *
T1 construct: the full length (FL) proteins of LXRα (amino acids 1-447); NP005684; expressed in transfected cells; host or cells: HEK293
T1 sequence (Q13133 1-447): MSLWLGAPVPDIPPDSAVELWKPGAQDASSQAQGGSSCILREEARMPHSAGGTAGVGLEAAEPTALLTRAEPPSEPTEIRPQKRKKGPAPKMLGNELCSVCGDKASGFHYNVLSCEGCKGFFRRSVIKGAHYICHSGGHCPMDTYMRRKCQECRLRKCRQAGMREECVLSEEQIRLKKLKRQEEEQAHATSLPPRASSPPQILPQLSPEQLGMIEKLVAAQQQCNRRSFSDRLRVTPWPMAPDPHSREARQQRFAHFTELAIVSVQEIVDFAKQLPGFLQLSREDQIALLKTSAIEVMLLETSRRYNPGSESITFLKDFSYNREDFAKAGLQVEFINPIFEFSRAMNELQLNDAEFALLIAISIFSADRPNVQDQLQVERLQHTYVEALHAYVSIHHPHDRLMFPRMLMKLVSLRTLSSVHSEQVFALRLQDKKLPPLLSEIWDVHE
Procedure: (§1) The tested compounds were usually dissolved, tested and stored as 20 mM stock solutions in DMSO. Since sulfonyl acetic acid derivatives tend to decarboxylate under these conditions, these stock solutions were prepared, tested and stored as 20 mM DMSO stock solutions containing 100 mM trifluoroacetic acid (5 equivalents). Sulfonyl acetic acid derivatives are shelf stable as solid at rt for long time as reported by Griesbrecht et al. (Synlett 2010:374) or Faucher et al. (J. Med. Chem. 2004; 47:18).
(§2) LXR Gal4 Reporter Transient Transfection Assays
(§3) LXRα and LXRβ activity status was determined via detection of interaction with coactivator and corepressor proteins in mammalian two-hybrid experiments (M2H). For this, via transient transfection the full length (FL) proteins of LXRα (amino acids 1-447; NP005684; SEQ ID NO:1) or LXRβ-(amino acids 1-461; NP009052; SEQ ID NO:2) or the ligand-binding domains (LBD) of LXRα (amino acids 155-447 SEQ ID NO:3) or LXR (amino acids 156-461; SEQ ID NO:4) were expressed from pCMV-AD (Stratagene) as fusions to the transcriptional activation domain of NFkB. As cofactors, domains of either the steroid receptor coactivator 1 (SRC1; amino acids 552-887; SEQ ID NO:5) or of the corepressor NCoR (amino acids 1906-2312; NP006302; SEQ ID NO:6) were expressed as fusions to the DNA binding domain of the yeast transcription factor GAL4 (from pCMV-BD; Stratagene). Interaction was monitored via activation of a coexpressed Firefly Luciferase Reporter gene under control of a promoter containing repetitive GAL4 response elements (vector pFRLuc; Stratagene). Transfection efficiency was controlled via cotransfection of constitutively active pRL-CMV Renilla reniformis luciferase reporter (Promega). HEK293 cells were grown in minimum essential medium (MEM) with 2 mM L-glutamine and Earle's balanced salt solution supplemented with 8.3% fetal bovine serum, 0.1 mM non-essential amino acids, 1 mM sodium pyruvate, at 37° C. in 5% CO2. 3.5×10^4 cells/well were plated in 96-well cell culture plates in growth medium supplemented with 8.3% fetal bovine serum for 16-20 h to—90% confluency. For transfection, medium was taken off and LXR and cofactor expressing plasmids as well as the reporter plasmids are added in 30 μL OPTIMEM/well including polyethylene-imine (PEI) as vehicle. Typical amounts of plasmids transfected/well: pCMV-AD-LXR (5 ng), pCMV-BD-cofactor (5 ng), pFR-Luc (100 ng), pRL-CMV (0.5 ng). Compound stocks were prepared in DMSO, prediluted in MEM to a total volume of 120 μL, and added 4 h after addition of the transfection mixture (final vehicle concentration not exceeding 0.2%). Cells were incubated for additional 16 h, lysed for 10 min in 1×Passive Lysis Buffer (Promega) and Firefly and Renilla luciferase activities were measured sequentially in the same cell extract using buffers containing D-luciferine and coelenterazine, respectively. Measurements of luminescence were done in a BMG-luminometer.

[1] = biological target: T2, GST-LXRβ ligand-binding domain (Homo sapiens, UniProt P55055, INS174Q); experiment: TR-FRETβ activity assay (NCoA3 coactivator peptide recruitment); format: biochemical; conditions: 1 μM 24(S)-25-epoxycholesterol as prestimulating agonist; inverse agonist unless *
T2 construct: amino acids 156-461; NP009052; made in house; host or cells: E. coli
T2 sequence (P55055 with tags, fused parts or gaps INS174Q limits assumed): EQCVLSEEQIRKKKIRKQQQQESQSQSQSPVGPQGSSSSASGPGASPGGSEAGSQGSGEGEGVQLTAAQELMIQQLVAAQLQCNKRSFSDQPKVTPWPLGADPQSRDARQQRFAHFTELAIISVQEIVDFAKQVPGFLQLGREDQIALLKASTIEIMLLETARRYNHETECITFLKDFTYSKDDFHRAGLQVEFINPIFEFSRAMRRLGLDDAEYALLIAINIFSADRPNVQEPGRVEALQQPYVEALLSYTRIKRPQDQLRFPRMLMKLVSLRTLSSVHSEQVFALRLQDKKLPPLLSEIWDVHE
Procedure: The tested compounds were usually dissolved, tested and stored as 20 mM stock solutions in DMSO. […] Sulfonyl acetic acid derivatives are shelf stable as solid at rt for long time as reported by Griesbrecht et al. (Synlett 2010:374) or Faucher et al. (J. Med. Chem. 2004; 47:18). TR-FRETβ Activity Assay Recombinant GST-LXRβ ligand-binding domain (LBD; amino acids 156-461; NP009052; SEQ ID NO:4) was expressed in E. coli and purified via gluthatione-sepharose affinity chromatography. N-terminally biotinylated NCoA3 coactivator peptide (SEQ ID NO:7) was chemically synthesized (Eurogentec). […] Finally, a detection mix was added containing anti GST-Tb cryptate (CisBio; 610SAXLB) and Streptavidin-XL665 (CisBio; 610SAXLB) as fluorescent donor and acceptor, respectively, as well as the coactivator peptide and LXRβ-LBD protein (SEQ ID NO:4). The reaction was mixed thoroughly, equilibrated for 1 h at 4° C. and vicinity of LXRβ and coactivator peptide was detected by measurement of fluorescence in a VictorX4 multiplate reader (PerkinElmer Life Science) using 340 nm as excitation and 615 and 665 nm as emission wavelengths. Assays were performed in triplicates. Final Assay Concentrations of Components: 240 mM KCl, 1 μg/μL BSA, 0.002% Triton-X-100, 125 pg/μL anti GST-Tb cryptate, 2.5 ng/μL Streptavidin-XL665, coactivator peptide (400 nM), LXRP protein ([…], i.e. 76 nM).

LXRβ full length (FL) = biological target: T3, LXRβ full length (FL) (Homo sapiens, UniProt P55055, INS174Q); experiment: LXR Gal4 reporter transient transfection assay, mammalian two-hybrid, FL-M2H Gal4β; format: cell-based; conditions: HEK293 cells; inverse agonist unless *
T3 construct: the full length (FL) proteins of LXRα (amino acids 1-447); NP005684; NP009052; expressed in transfected cells; host or cells: HEK293
T3 sequence (P55055 with tags, fused parts or gaps INS174Q): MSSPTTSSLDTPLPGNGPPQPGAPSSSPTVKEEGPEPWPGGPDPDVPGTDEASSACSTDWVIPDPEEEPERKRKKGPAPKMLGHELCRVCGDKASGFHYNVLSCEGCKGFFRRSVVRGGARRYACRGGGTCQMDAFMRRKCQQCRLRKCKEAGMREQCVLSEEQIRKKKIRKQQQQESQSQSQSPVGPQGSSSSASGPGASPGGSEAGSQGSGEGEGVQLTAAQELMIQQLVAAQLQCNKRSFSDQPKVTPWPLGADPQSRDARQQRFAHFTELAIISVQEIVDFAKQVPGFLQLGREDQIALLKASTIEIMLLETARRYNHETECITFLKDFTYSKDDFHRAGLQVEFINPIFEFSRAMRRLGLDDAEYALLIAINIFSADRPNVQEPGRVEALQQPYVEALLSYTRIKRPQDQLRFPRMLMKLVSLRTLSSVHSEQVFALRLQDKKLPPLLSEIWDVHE
Procedure: as §1, §2, §3

Compound	EC50 (LXRα full length (FL))	EC50 [1]	EC50 (LXRβ full length (FL))	FRETβ [1]
CC(C)(C(=O)O)c1cccc(-c2ccc(CN(Cc3ccc(C(F)(F)F)o3)Cc3cccc4c3CCCO4)cc2)c1 [27/16]	< 100 nM	100 to 1000 nM	< 100 nM	–
Cc1ccc2c(CN(Cc3ccc(-c4cccc(C(C)(C)C(=O)O)c4)cc3)Cc3ccc(C(F)(F)F)o3)c(C)ccc2c1 [27/21]	< 100 nM	100 to 1000 nM	< 100 nM	–
Cc1cc(C)c(C(=O)N(Cc2ccc(-c3cc(F)c(CO)c(S(=O)(=O)CC(=O)O)c3)cc2)Cc2ccc(C(F)(F)F)o2)c(C)c1 [22/13]	100 to 1000 nM	1000 to 10000 nM	100 to 1000 nM	–
O=C(O)CS(=O)(=O)c1cccc(-c2ccc(CN(Cc3ccc(C(F)(F)F)o3)Cc3c(Cl)cccc3Cl)cc2)c1 [7/10]	1000 to 10000 nM	100 to 1000 nM	100 to 1000 nM	–
Cc1cc(C)c(CN(Cc2ccc(-c3cccc(S(=O)(=O)CC(=O)O)c3)cc2)Cc2cccc(C(F)(F)F)c2)c(C)c1 [7/14]	1000 to 10000 nM	1000 to 10000 nM	100 to 1000 nM	–
CC(C)(C(=O)O)c1cccc(-c2ccc(CN(Cc3ccc(C(F)(F)F)o3)C(=O)c3cccc4cnncc34)cc2)c1 [27/14]	1000 to 10000 nM	100 to 1000 nM	100 to 1000 nM	–
Cc1cc(C)c(CN(Cc2ccc(-c3cccc(S(=O)(=O)CC(=O)O)c3)cc2)C(C)c2ccc(C(F)(F)F)o2)c(C)c1 (stereo not drawn) [7/12]	100 to 1000 nM	1000 to 10000 nM	100 to 1000 nM	–
O=C(O)CS(=O)(=O)c1cccc(-c2ccc(CN(Cc3ccc(C(F)(F)F)o3)Cc3ccc(F)c4cccnc34)cc2)c1 [7/3]	1000 to 10000 nM	–	1000 to 10000 nM and 100 to 1000 nM	B*
Cc1ccc2ccccc2c1CN(Cc1ccc(-c2cncc(S(=O)(=O)CC(=O)O)c2)cc1)Cc1ccc(C(F)(F)F)o1 [26/7]	1000 to 10000 nM	> 10000 nM	100 to 1000 nM	–
COc1cc(-c2cc(F)c(CO)c(S(=O)(=O)CC(=O)O)c2)ccc1CN(Cc1ccc(C(F)(F)F)o1)Cc1c(C)ccc2ccccc12 [22/9]	100 to 1000 nM	1000 to 10000 nM	< 100 nM	–
Cc1sc2ccccc2c1CN(Cc1ccc(-c2cccc(S(=O)(=O)CC(=O)O)c2)cc1)Cc1ccc(C(F)(F)F)o1 [7/6]	100 to 1000 nM	1000 to 10000 nM	100 to 1000 nM	–
COc1ccc2ccccc2c1CN(Cc1ccc(-c2cccc(S(=O)(=O)CC(=O)O)c2)cc1)Cc1ccc(C(F)(F)F)o1 [7/5]	100 to 1000 nM	100 to 1000 nM	100 to 1000 nM	–

Further lines, results first:

EC50 (LXRα full length (FL))	EC50 [1]	EC50 (LXRβ full length (FL))	FRETβ [1]	Compound
1000 to 10000 nM	> 10000 nM	100 to 1000 nM	–	COc1cc(CN(Cc2ccc(C(F)(F)F)o2)Cc2c(C)ccc3ccccc23)ccc1-c1cc(F)c(CO)c(S(=O)(=O)CC(=O)O)c1 [Example 22, 2-((5-Fluoro-4-(hydroxymethyl)-2′-methoxy-4′-((((2-methylnaphthalen-1-yl)methyl)((5-(trifluoromethyl)furan-2-yl)methyl)amino)methyl)-[1,1′-biphenyl]-3-yl)sulfonyl)acetic acid]
1000 to 10000 nM	1000 to 10000 nM	100 to 1000 nM	–	Cc1ccc2ccccc2c1C(=O)N(Cc1ccc(C(F)(F)F)o1)Cc1ccc(-c2cncc(S(=O)(=O)CC(=O)O)c2)cc1C(F)(F)F [27/62]
< 100 nM	100 to 1000 nM	< 100 nM	–	Cc1c(C(=O)N(Cc2ccc(-c3cccc(C(C)(C)C(=O)O)c3)cc2)Cc2ccc(C(F)(F)F)o2)c2ccccc2n(C)c1=O [27/94]
100 to 1000 nM	1000 to 10000 nM	< 100 nM	–	Cc1ccc2ccccc2c1C(=O)N(CCc1cccc(Br)c1)Cc1ccc(-c2cccc(C(C)(C)C(=O)O)c2)cc1 [27/30]
< 100 nM	–	< 100 nM	C*	Cc1nc2cccnc2c(CN(Cc2ccc(-c3cccc(C(C)(C)C(=O)O)c3)cc2)Cc2ccc(C(F)(F)F)o2)c1C [27/133]
1000 to 10000 nM	> 10000 nM	1000 to 10000 nM	–	Cc1nc2ccccc2c(C(=O)N(Cc2ccc(C(=O)N(C)C)o2)Cc2ncc(-c3cccc(C(C)C(=O)O)c3)cc2Cl)c1C (stereo not drawn) [27/100]
1000 to 10000 nM	> 10000 nM	100 to 1000 nM	–	Cc1ccc2ccccc2c1C(=O)N(Cc1ccc(C(F)(F)F)o1)Cc1ccc(-c2cccc(C(C)(C)C(=O)O)c2)cc1C(N)=O [Example 17]
< 100 nM	100 to 1000 nM	< 100 nM	–	Cc1ccc2ccc(C#N)cc2c1CN(Cc1ccc(-c2cccc(C(C)(C)C(=O)O)c2)cc1)Cc1ccc(C(F)(F)F)o1 [27/27]
1000 to 10000 nM	1000 to 10000 nM	100 to 1000 nM	–	CCc1cc(C)cc(C)c1CN(Cc1ccc(-c2cccc(S(=O)(=O)CC(=O)O)c2)cc1)Cc1ccc(C(F)(F)F)o1 [27/35]
< 100 nM	< 100 nM	< 100 nM	–	Cc1ccc2ccc(F)cc2c1C(=O)N(Cc1ccc(-c2cccc(C(C)(C)C(=O)O)c2)cc1)Cc1ccc(C(F)(F)F)o1 [27/53]

From US20200131144A1, “AMINE OR (THIO)AMIDE CONTAINING LXR MODULATORS” (Phenex-FXR GmbH, priority 2017, published 2020)
